From PubChem BioAssay AID248 (DTP/NCI, 2004)
Values joined by “and” are separate entries in the source; they are usually repeats but may differ in a detail not shown here. Equal entries are not always repeated. Inconclusive results and toxic doses are left out. Rule as the data show it: active = T/C of 150% or more; inactive = T/C below 125%.

System: L1210 leukemia ip in BDF1 mice, survival T/C
Assay: NCI In Vivo Anticancer Drug Screen. Data for tumor model L1210 Leukemia (intraperitoneal) in B6D2F1 (BDF1) mice
Conditions: endpoint: mean survival time, higher = longer survival
Outline: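 Read-out is survival time, reported as the treated-group measurement over the vehicle-control measurement.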

[1] = dose: 100.0 mg/kg/injection, schedule: Q01DX001 (ip), vehicle: carboxymethylcellulose (CMC)
[2] = dose: 200.0 mg/kg/injection, schedule: Q01DX001 (ip), vehicle: carboxymethylcellulose (CMC)
[3] = dose: 100.0 mg/kg/injection, schedule: Q01DX009 (ip), vehicle: saline with Tween-80
[4] = dose: 200.0 mg/kg/injection, schedule: Q01DX009 (ip), vehicle: saline with Tween-80
[5] = dose: 400.0 mg/kg/injection, schedule: Q01DX009 (ip), vehicle: saline with Tween-80
[6] = dose: 100.0 mg/kg/injection, schedule: Q04DX003 (ip), vehicle: Klucel (hydroxypropylcellulose) (HPC)
[7] = dose: 200.0 mg/kg/injection, schedule: Q04DX003 (ip), vehicle: Klucel (hydroxypropylcellulose) (HPC)
[8] = dose: 400.0 mg/kg/injection, schedule: Q04DX003 (ip), vehicle: Klucel (hydroxypropylcellulose) (HPC)
[9] = dose: 25.0 mg/kg/injection, schedule: Q01DX009 (ip), vehicle: saline with Tween-80
[10] = dose: 50.0 mg/kg/injection, schedule: Q01DX009 (ip), vehicle: saline with Tween-80
[11] = dose: 100.0 mg/kg/injection, schedule: Q04DX002 (ip), vehicle: saline with Tween-80
[12] = dose: 100.0 mg/kg/injection, schedule: Q01DX001 (ip), vehicle: Klucel (hydroxypropylcellulose) (HPC)
[13] = dose: 100.0 mg/kg/injection, schedule: Q01DX009 (ip), vehicle: other
[14] = dose: 200.0 mg/kg/injection, schedule: Q01DX001 (ip), vehicle: Klucel (hydroxypropylcellulose) (HPC)
[15] = dose: 200.0 mg/kg/injection, schedule: Q01DX009 (ip), vehicle: other
[16] = dose: 400.0 mg/kg/injection, schedule: Q01DX009 (ip), vehicle: other

Measured: T/C

CCOC(=O)C1CC(=O)c2cc(OC)c(OC)cc2C1c1ccc(OC)c(OC)c1 (configuration not stated)
inactive: [1] 98 % of control | [2] 89 % of control

O=[N+]([O-])c1ccc(N/N=C/c2cccc(CO)c2)c([N+](=O)[O-])c1
inactive: [3] 98 % of control | [4] 95 % of control | [5] 100 % of control

CC(C)(CCc1ccccn1)C(=O)C(CCc1ccccn1)CCc1ccccn1
inactive: dose: 222.0 mg/kg/injection, schedule: Q01DX Z (ip), vehicle: saline 110 % of control | dose: 333.0 mg/kg/injection, schedule: Q01DX Z (ip), vehicle: saline 102 % of control | dose: 500.0 mg/kg/injection, schedule: Q01DX Z (ip), vehicle: saline 96 % of control

CC(=O)C1=CC(=O)c2ccccc2C1=O
inactive: dose: 20.0 mg/kg/injection, schedule: Q01DX001 (ip), vehicle: water 103 % of control | dose: 40.0 mg/kg/injection, schedule: Q01DX001 (ip), vehicle: water 95 % of control | dose: 80.0 mg/kg/injection, schedule: Q01DX001 (ip), vehicle: water 93 % of control

O=[N+]([O-])c1sc2ccccc2c1/C=C/c1csc2ccccc12
inactive: dose: 100.0 mg/kg/injection, schedule: Q01DX001 (ip), vehicle: saline 87 % of control | dose: 200.0 mg/kg/injection, schedule: Q01DX001 (ip), vehicle: saline 91 % of control | dose: 400.0 mg/kg/injection, schedule: Q01DX001 (ip), vehicle: saline 97 % of control

CC(=O)Nc1ccc(C#N)c2ccccc12
inactive: dose: 100.0 mg/kg/injection, schedule: Q01DX009 (ip), vehicle: Klucel (hydroxypropylcellulose) (HPC) 97 % of control | [6] 102 % of control | dose: 200.0 mg/kg/injection, schedule: Q01DX009 (ip), vehicle: Klucel (hydroxypropylcellulose) (HPC) 98 % of control | [7] 102 % of control | dose: 400.0 mg/kg/injection, schedule: Q01DX009 (ip), vehicle: Klucel (hydroxypropylcellulose) (HPC) 103 % of control | [8] 97 % of control

O=C(Nc1cccc(Cl)c1)Oc1c(Cl)cc(S(=O)(=O)F)cc1Cl
inactive: [9] 97 % of control | dose: 25.0 mg/kg/injection, schedule: Q04DX002 (ip), vehicle: saline with Tween-80 101 % of control | [10] 93 % of control | dose: 50.0 mg/kg/injection, schedule: Q04DX002 (ip), vehicle: saline with Tween-80 93 % of control | [3] 100 % of control | [11] 96 % of control and 90 % of control

O=C(Cl)OC12CC3CC(CC(C3)C1)C2
inactive: [12] 95 % of control | [13] 105 % of control | [14] 97 % of control | [15] 105 % of control | dose: 400.0 mg/kg/injection, schedule: Q01DX001 (ip), vehicle: Klucel (hydroxypropylcellulose) (HPC) 100 % of control | [16] 105 % of control

CCCNC(=O)Nc1ccc(Cl)cc1
inactive: [1] 103 % of control | [2] 98 % of control | dose: 400.0 mg/kg/injection, schedule: Q01DX001 (ip), vehicle: carboxymethylcellulose (CMC) 95 % of control

O=C(Cn1cnc2c(=S)nc[nH]c21)Oc1ccc([N+](=O)[O-])cc1
inactive: [3] 98 % of control | [6] 96 % of control | [7] 105 % of control | [8] 94 % of control

O=C(Oc1c(Cl)cc(S(=O)(=O)F)cc1Cl)c1ccc([N+](=O)[O-])cc1
inactive: dose: 100.0 mg/kg/injection, schedule: Q04DX002 (ip), vehicle: gum acacia 101 % of control | dose: 200.0 mg/kg/injection, schedule: Q04DX002 (ip), vehicle: gum acacia 99 % of control | dose: 400.0 mg/kg/injection, schedule: Q04DX002 (ip), vehicle: gum acacia 99 % of control

CCOC(=O)CSc1nc(N)cc(=O)[nH]1
inactive: dose: 50.0 mg/kg/injection, schedule: Q01DX001 (ip), vehicle: Klucel (hydroxypropylcellulose) (HPC) 110 % of control | [12] 117 % of control | [14] 110 % of control

Cc1ccc(Cl)cc1NC(=O)Nc1ccc(F)c([N+](=O)[O-])c1
inactive: dose: 12.5 mg/kg/injection, schedule: Q01DX009 (ip), vehicle: saline with Tween-80 95 % of control and 90 % of control | [9] 88 % of control and 92 % of control | dose: 25.0 mg/kg/injection, schedule: Q04DX003 (ip), vehicle: saline with Tween-80 90 % of control | [10] 92 % of control | dose: 50.0 mg/kg/injection, schedule: Q04DX003 (ip), vehicle: saline with Tween-80 87 % of control | [11] 96 % of control and 89 % of control | [4] 93 % of control and 100 % of control | dose: 200.0 mg/kg/injection, schedule: Q04DX002 (ip), vehicle: saline with Tween-80 101 % of control and 91 % of control | [5] 93 % of control and 104 % of control | dose: 400.0 mg/kg/injection, schedule: Q04DX002 (ip), vehicle: saline with Tween-80 93 % of control and 94 % of control

CC12C=CC(=O)C=C1CCC1C2C(O)CC2(C)C1CCC2(O)C(=O)CSc1ncnc2nc[nH]c12 (configuration not stated)
inactive: dose: 60.0 mg/kg/injection, schedule: Q01DX015 (ip), vehicle: saline 92 % of control | dose: 90.0 mg/kg/injection, schedule: Q01DX015 (ip), vehicle: saline 100 % of control | dose: 100.0 mg/kg/injection, schedule: Q01DX001 (sc), vehicle: steriod suspending solution 112 % of control | dose: 135.0 mg/kg/injection, schedule: Q01DX015 (ip), vehicle: saline 92 % of control | dose: 200.0 mg/kg/injection, schedule: Q01DX001 (sc), vehicle: steriod suspending solution 112 % of control | dose: 200.0 mg/kg/injection, schedule: Q01DX015 (ip), vehicle: saline 92 % of control | dose: 400.0 mg/kg/injection, schedule: Q01DX001 (sc), vehicle: steriod suspending solution 97 % of control

CC[C@]1(O)C[C@H](OC2CC(N(C)C)C(OC3CC(O)C(O)C(C)O3)C(C)O2)c2c(cc3c(c2O)C(=O)c2c(O)ccc(O)c2C3=O)[C@H]1C(=O)OC (some centres not stated)
inactive: dose: 0.2 mg/kg/injection, schedule: Q04DX002 (ip), vehicle: Klucel (hydroxypropylcellulose) (HPC) 104 % of control | dose: 0.4 mg/kg/injection, schedule: Q01DX001 (ip), vehicle: Klucel (hydroxypropylcellulose) (HPC) 108 % of control | dose: 0.4 mg/kg/injection, schedule: Q04DX002 (ip), vehicle: Klucel (hydroxypropylcellulose) (HPC) 114 % of control | dose: 0.8 mg/kg/injection, schedule: Q01DX001 (ip), vehicle: Klucel (hydroxypropylcellulose) (HPC) 105 % of control | dose: 0.8 mg/kg/injection, schedule: Q04DX002 (ip), vehicle: Klucel (hydroxypropylcellulose) (HPC) 107 % of control | dose: 1.6 mg/kg/injection, schedule: Q01DX001 (ip), vehicle: Klucel (hydroxypropylcellulose) (HPC) 111 % of control | dose: 1.6 mg/kg/injection, schedule: Q04DX002 (ip), vehicle: Klucel (hydroxypropylcellulose) (HPC) 107 % of control | dose: 3.2 mg/kg/injection, schedule: Q01DX001 (ip), vehicle: Klucel (hydroxypropylcellulose) (HPC) 116 % of control | dose: 6.4 mg/kg/injection, schedule: Q01DX001 (ip), vehicle: Klucel (hydroxypropylcellulose) (HPC) 120 % of control

C1C[S][Sn]2([S]CCO1)[S]CCOCC[S]2
inactive: dose: 12.5 mg/kg/injection, schedule: Q01DX001 (ip), vehicle: saline with Tween-80 94 % of control | dose: 25.0 mg/kg/injection, schedule: Q01DX001 (ip), vehicle: saline with Tween-80 106 % of control | dose: 50.0 mg/kg/injection, schedule: Q01DX001 (ip), vehicle: saline with Tween-80 87 % of control

CCCCCCCCCCCC(=O)CCCCC
inactive: [13] 91 % of control | [15] 94 % of control | [16] 91 % of control
